Patent US20250134667A1, “BIOABSORBABLE AND PHOTOCURABLE COMPOSITION, BIOABSORBABLE GUIDED TISSUE REGENERATION COMPOSITION, AND GRAFTING METHOD USING SAME” (priority 2022, published 2025)
Peptide text beside a SMILES is read from it.

Columns and labels:
pNFκB = experiment: Western blot of pNFkB in Raw264.7 cells; format: cell-based, mouse; settings: only the peptide, no LPS
Method: (§1) Raw264.7 cells were purchased from ATCC (American Type Culture Collection) and used in the experiment. Raw264.7 cells were cultured in a CO2 incubator at 37° C. supplied with 5% CO2 and 95% air using DMEM (Dulbecco's modified Eagle medium) medium supplemented with 10% FBS and 100 units/ml antibiotics (penicillin-streptomycin).
[…] After 8 hours, the treated cells were collected, protease inhibitor cocktail and phosphatase inhibitor cocktail were added to Radioimmunoprecipitation assay buffer (RIPA buffer solution, Thermo Fisher, 89900), and the cells were treated to lyse the cells. After centrifuging the cell lysate and collecting the supernatant, the concentration of the cell lysate was measured using a bicinchoninic acid assay (BCA assay, Thermo Fisher, 23227), and RIPA buffer solution was added thereto to prepare the cell lysate to a final concentration of 5 mg/mL. Then, it was mixed with a buffer solution including 1 M Tris-HCl (pH 6.8), 50% glycerol, and 10% SDS in a 4:1 ratio, and then sodium dodecyl sulfate-poly acrylamide gel electrophoresis (SDS-PAGE) was performed. […]

plkBa = experiment: Western blot of plkBa in Raw264.7 cells; format: cell-based, mouse; settings: only the peptide, no LPS
Method: as §1
Raw264.7 cells were treated with 200 μM of the peptide having the amino acid sequence of SEQ ID NO: 1 for 30 minutes, and then treated with 1 μg/ml LPS (lipopolysaccharide, Merck, L3024). After 8 hours, the treated cells were collected, protease inhibitor cocktail and phosphatase inhibitor cocktail were added to Radioimmunoprecipitation assay buffer (RIPA buffer solution, Thermo Fisher, 89900), and the cells were treated to lyse the cells. After centrifuging the cell lysate and collecting the supernatant, the concentration of the cell lysate was measured using a bicinchoninic acid assay (BCA assay, Thermo Fisher, 23227), and RIPA buffer solution was added thereto to prepare the cell lysate to a final concentration of 5 mg/mL. Then, it was mixed with a buffer solution including 1 M Tris-HCl (pH 6.8), 50% glycerol, and 10% SDS in a 4:1 ratio, and then sodium dodecyl sulfate-poly acrylamide gel electrophoresis (SDS-PAGE) was performed. […]

Raw264.7 cells = experiment: Cell penetration ability at the cellular level (confocal microscopy); format: cell-based, mouse; settings: 50, 100, 200 μM, 1 hour
Method: The N-terminus of the peptide having the amino acid of SEQ ID NO: 1 prepared in Example 1 was fluorescently labeled with Rhodamine B (Tokyo chemical industry Co., LTD., A5102). Raw264.7 cells were distributed 3×10^4 each into a 4-well chamber and cultured in DMEM medium for 24 hours to stabilize the cells. After 24 hours, fluorescently labeled peptide was added to the medium at concentrations of 50, 100, and 200 μM. After 1 hour of peptide treatment, a degree of penetration of the peptide into cells was observed using a confocal scanning fluorescence microscope […]. Cell nuclei were stained using 4′,6-diamidino-2-phenylindole (DAPI, Thermo Fisher, D1306). DIC represents the case observed under a general microscope, Nuceli represents the nucleus of a cell, Peptide represents the degree of penetration of a peptide bound to rhodamine B, and MERGE represents an image that overlaps images of DIC, Nuclei, and the penetrated peptide.

[1] = test system: gingival tissue of a rabbit; experiment: Tissue penetration ability in animal tissue, rabbit; format: in vivo; settings: living rabbit
Method: (§2) The amine group of the peptide having the amino acid of SEQ ID NO: 1 was labeled with fluorescence using Alexa Fluor™ 680 NHS Ester (Thermo Fisher, A20008). The fluorescent labeling method followed the method provided by the manufacturer. The fluorescently labeled peptide was dissolved in water for injection at a concentration of 250 mg/ml, and 10 μL was injected into the gingival sulcus of the premolars of an adult dog (beagle dog) and the anterior gingival sulcus of a rabbit. After 2 hours, to check the permeability of the peptide in the tissue, the animal was sacrificed, the gingival tissue was collected, and tissues were embedded using Tissue-Tek® O.C.T. Compound (Sakura Finetek, 4583). After sectioning the embedded tissue at 10 μm thickness, fluorescently labeled peptides were confirmed using a confocal scanning fluorescence microscope. The nuclei of tissue cells were stained using DAPI.

[2] = test system: gingival tissue of an adult dog; experiment: Tissue penetration ability in animal tissue, adult dog; format: in vivo, adult dog (beagle dog)
Method: as §2

SMILES: C[C@@H](O)[C@H](NC(=O)[C@H](CO)NC(=O)[C@H](CS)NC(=O)[C@H](CCCCN)NC(=O)CN)C(=O)N[C@@H](CCCNC(=N)N)C(=O)NCC(=O)N[C@@H](CCCNC(=N)N)C(=O)N[C@@H](CCCCN)C(=O)N[C@@H](CO)C(=O)N[C@@H](CO)C(=O)N[C@@H](CCCNC(=N)N)C(=O)N[C@@H](CCCNC(=N)N)C(=O)N[C@@H](CCCCN)C(=O)N[C@@H](CCCCN)C(N)=O [SEQ ID NO: 1, GKCSTRGRKSSRRKK] (H-GKCSTRGRKSSRRKK-NH2; N-terminus and C-terminus assumed)
- expression of pNFκB, peptide only (pNFκB): no effect
- expression of plkBa, peptide only (plkBa): no effect
- concentration dependence of intracellular fluorescence (Raw264.7 cells): as the concentration of peptide increased, the intensity of fluorescence also increased
- penetration into gingival tissue (in words) [1]: penetrated
- penetration into gingival tissue (in words) [2]: penetrated
